Earlier results, collected in patent US20050101642A1, “Chemical complex comprising a pyridine carboxy derivative and an H2 histamine receptor antagonist” (Astion Development ApS, priority 2000, published 2005).

Target: poly(ADP-ribose)polymerase (Homo sapiens, UniProt P09874)
Sequence (P09874 whole entry): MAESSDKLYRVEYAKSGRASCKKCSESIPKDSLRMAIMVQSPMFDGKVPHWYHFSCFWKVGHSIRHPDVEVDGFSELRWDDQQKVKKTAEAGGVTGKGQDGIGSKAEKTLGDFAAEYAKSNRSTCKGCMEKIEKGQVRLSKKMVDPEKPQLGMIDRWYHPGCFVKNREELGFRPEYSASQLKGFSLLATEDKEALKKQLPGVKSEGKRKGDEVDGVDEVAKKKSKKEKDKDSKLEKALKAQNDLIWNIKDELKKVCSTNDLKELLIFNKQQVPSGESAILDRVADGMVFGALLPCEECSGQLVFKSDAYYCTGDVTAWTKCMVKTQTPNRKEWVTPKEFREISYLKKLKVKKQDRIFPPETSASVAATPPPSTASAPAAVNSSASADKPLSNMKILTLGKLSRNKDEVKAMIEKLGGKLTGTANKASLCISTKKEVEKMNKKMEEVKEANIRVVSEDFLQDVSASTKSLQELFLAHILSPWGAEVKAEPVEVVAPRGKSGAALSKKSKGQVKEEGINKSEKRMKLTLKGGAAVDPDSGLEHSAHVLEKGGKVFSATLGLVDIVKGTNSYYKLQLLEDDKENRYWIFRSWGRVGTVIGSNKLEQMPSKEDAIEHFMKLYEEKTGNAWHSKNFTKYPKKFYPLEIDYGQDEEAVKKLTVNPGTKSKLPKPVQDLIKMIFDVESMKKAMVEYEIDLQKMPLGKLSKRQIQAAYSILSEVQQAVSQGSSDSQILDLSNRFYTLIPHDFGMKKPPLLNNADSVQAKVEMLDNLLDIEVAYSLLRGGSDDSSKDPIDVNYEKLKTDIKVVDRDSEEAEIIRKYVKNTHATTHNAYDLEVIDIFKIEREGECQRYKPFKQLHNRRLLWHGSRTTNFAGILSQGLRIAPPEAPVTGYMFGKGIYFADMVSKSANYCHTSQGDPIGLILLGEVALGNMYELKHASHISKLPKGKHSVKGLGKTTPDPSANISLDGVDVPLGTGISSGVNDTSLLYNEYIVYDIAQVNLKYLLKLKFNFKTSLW

- inhibition of poly(ADP-ribose)polymerase: potent inhibitor
Compound: NC(=O)c1cccnc1 [Niacinamide]
